# “And” between values parts separate entries of the source, which are not always exact repeats. Equal values may be shown once. ± gives the expanded uncertainty stated by the source.
# Details: 313.15 K; Liquid; Ebulliometric method (Recirculating still)
row,Structure (SMILES),vapor or sublimation pressure
1,C1CCCCC1 [cyclohexane],24.61 ± 0.14 kPa and 24.62 ± 0.14 kPa
2,CCCCCCC [heptane],12.33 ± 0.088 kPa and 12.33 ± 0.087 kPa
3,C=CCCCC [hex-1-ene],44.95 ± 0.22 kPa

# From the NIST ThermoML archive (doi:10.1021/je7007523)
